# Reference: patent US10053443B2, “2-phenylbenzofuran derivatives, method for preparing the same and use of the same for treating inflammatory disease” (KOREA RESEARCH INSTITUTE OF BIOSCIENCE AND BIOTECHNOLOGY, priority 2014, dated 2018)
# Tests used:
# [1] = tested on: Raw 264.7 (ATCC TIB71) cells; assay: Evaluation of cell survival rate of macrophages (MTT); format: cell-based, mouse; conditions: Raw 264.7, 10 μM, 24 hours
# Experimental: Raw 264.7 (ATCC TIB71) cells, the mouse derived macrophages', were inoculated in a 96-well plate containing DMEM (Dulbecco's modified Eagle medium; Welgene, Korea) supplemented with 10% FBS (Fetal Bovine Serum), 2 mM glutamine, penicillin (100 unit/ml), and streptomycin (100 μg/ml) at the density of 1×10^4 cells/well. The cells were cultured in 5% CO2 at 37° C. for 4 hours to attach the cells onto the plate. Next, the cells were treated with each sample at different concentrations, followed by further culture for 24 hours. To investigate the cell survival rate, 5 mg/ml of MTT (3-(4,5-dimethylthiazol-2-yl)-2,5-diphenyltetrazoliumbromide, Amresco, OH, USA) was distributed thereto (10 μl/well), followed by culture for 4 hours. Then, the supernatant was eliminated. Formazan reduced from MTT by mitochondria was dissolved in 100 μl of DMSO and then OD570 was measured. 0.2% DMSO was used for the negative control.
# [2] = tested on: Nitrogen Oxide (NO) generation; assay: Inhibition of nitrogen oxide (NO) generation in LPS-treated Raw 264.7 cells (Griess); format: cell-based, mouse; conditions: Raw 264.7, LPS 500 ng/ml, 24 hours
# Experimental: Raw 264.7 (ATCC TIB71) cells were inoculated in a 96-well plate containing the same medium as used in Experimental Example 1 at the density of 1×10^5 cells/well. The cells were cultured in 5% CO2 at 37° C. for 4 hours to attach the cells onto the plate. The cells were treated with each sample at different concentrations, followed by further culture for 1 hour. […] were treated thereto at the final concentration of 500 ng/ml, followed by further culture for 24 hours. 100 μl of the supernatant was taken and transferred in a new plate, which was mixed with Griess reagent (a mixture of 1% sulfanilamide, 0.1% N-[1-naphthyl]-ethylenediamine dihydrochloride, and 5% phosphoric acid), followed by reaction for 10 minutes. Then, OD540 was measured. NO generation was quantified by using the sodium nitrite standard curve prepared from […] dissolved in the same medium at different concentrations. Considering the NO generation of the inflammation induced macrophages as 100%, the NO generation inhibition rate was calculated and presented in Table 7.
# [3] = tested on: rheumatoid arthritis animal model; conditions: DBA/1 CIA mice, 30 mg/kg oral, FIGS. 11 and 12
# Experimental: (§1) Bovine type II collagen (100 μg/mouse, Hondrax, Seattle, USA) and complete Freund's adjuvant (Chondrex, Seattle, USA) were intradermally injected in the tail of […]. On day 21, 100 μg of bovine type II collagen was mixed with incomplete Freund's adjuvant (IFA), which was injected in the tail of each mouse once again to induce arthritis.
# (§2) The compound of Example 25 of the invention was dissolved in a solvent (10% DMAC+10% Tween 80 in PBS).
# (§3) Administration pathway: Oral administration Group (6 per group) • Vehicle control group (CIA group) • Dexamethasone (0.3 mg/kg)—positive control group • Example 25 compound group (30 mg/kg)
# [4] = tested on: interleukin-6 (IL-6) generation; assay: Inhibition of interleukin-6 (IL-6) generation in LPS-treated Raw 264.7 cells (ELISA); format: cell-based, mouse; conditions: Raw 264.7, LPS treated; read-out: Grades of IC50 on IL-6 generation
# Experimental: Raw 264.7 cells were distributed by the same manner as described in Experimental Example <2-1>, and IL-6 included in the supernatant treated with each sample at different concentrations was measured by enzyme-linked immunosorbent assay (IL-6 ELISA kit, BD Bioscience, San Diego, Calif.).
# Particularly, 10-fold diluted supernatant was distributed in a 96-well plate on which IL-6 antibody was attached, followed by adhesion for 2 hours. The supernatant remaining after the adhesion was washed with a washing buffer. The detection antibody and HRP were adhered on the washed plate for 1 hour. The remaining antibody was washed. Color development was induced by using TMB substrate. The reaction was terminated with sulfuric acid solution. Then, OD450 was measured. IL-6 in the supernatant was quantified by using the standard curve made with the standard IL-6 included in the kit. IL-6 suppression rate was calculated by measuring the same concentration that could inhibit IL-6 generation up to 50% in the LPS treated group and the results are shown in Table 8.
# TNF-alpha = conditions: DBA/1 CIA mice, 30 mg/kg oral, FIG. 13
# Experimental: as §1, §2, §3
# (§4) ELISA was performed with the serum and foot to investigate whether or not the compound of the invention could suppress the generation of TNF-alpha and interleukin-6, the inflammatory cytokines known as the promoter of inflammation which is the common symptom of acute and chronic arthritis.
# interleukin-6 = conditions: DBA/1 CIA mice, 30 mg/kg oral, FIG. 14
# Experimental: as §1, §2, §3, §4
compound,measurement,setting,value
"COc1cc(CCCO)cc(CCc2cccc(C)c2)c1O [Example 15, 4-(3-hydroxypropyl)-2-methoxy-6-(3-methylpenethyl)phenol]","Grades of cell survival rate (%, in 10 μM)",[1],A (A: 90<A≤100)
same,Grades of NO generation inhibition rate (%),[2],A (A: 35<A≤100)
same,edema in the foot induced by collagen (clinical score),[3],suppressed edema in the foot induced by collagen up to the level of the positive control
same,IC50,[4],20 to 30 µM
same,generation of TNF-alpha induced by collagen,TNF-alpha,inhibited
same,generation of interleukin-6 induced by collagen,interleukin-6,inhibited
